The record followed here is a melting point compilation (Tetko et al.; mined from patent text by program, amines drawn as free bases though some values may be those of a salt).

As to `[N-]=[N+]=NC[C@H]1O[C@H]([C@H](O)CO)[C@H](O)[C@@H]1O`, the melting point amounted to 86 °C.

`CCCc1nc(S(=O)(=O)Nc2ccccc2Br)nn1-c1ccccc1` showed a melting point of 119 to 121 °C.

On to `Nc1ccn(C2OC(CO)C(O)C2O)c(=O)c1Br` (configuration not stated), for which the melting point was in the range of 202 to 204 °C.

`CC(=O)N(c1ccccc1)c1ccc(C(=O)CBr)cc1` yielded a melting point of 152 to 153 °C.

Compound `CCOc1ccccc1OCCN(CCCC(OCC)c1ccc(F)cc1)C(C)=O` (configuration not stated) returned a melting point of 58 to 60 °C.

Consider `COc1cccn2c(=O)c(CCN3CCc4oc5ccccc5c4C3)c(C)nc12`, for which the melting point turned out to be 151 °C.

With `CCC(=O)C(CCCCCCOc1ccc(OC)cc1)C(=O)CC`, the melting point fell in the range of 50 to 51 °C.

Take `Cc1c(N2CC[C@H](N(C)C)C2)c(F)c(N)c2c(=O)c(C(=O)O)cn(C3CC3)c12`: the melting point lay in the range of 204 to 206 °C.

`Cc1ccccc1N(CC(=O)N(C)c1ccccc1)C(=O)CN1C(=O)c2ccccc2C1=O` returned a melting point of 120 °C.

For `CC1(C)Cc2cccc(CCN3CCN(c4nsc5ccccc45)CC3)c2NC1=O`, the melting point is 95 °C.

Turning to `Nc1ncnc2c1c(-c1ccc(Oc3ccccc3)cc1)nn2C1CCOCC1`, the melting point was in the range of 187 to 188 °C.

For `CC1(C)Cc2ccoc2C(=O)N1`, the melting point fell in the range of 133 to 134 °C.

`C=CCN1C2CCC3C1CCC2N3C(c1ccc(C(=O)N2CCCCC2)cc1)c1cccc(OC)c1` (configuration not stated) returned a melting point of 94 to 96 °C.

As for `CSc1ccc(C=O)cc1Cl`, the melting point is 58 to 59 °C.

In the case of `O=C(CCC(O)c1ccccc1)NCc1ccccc1` (configuration not stated), the melting point was 92 to 94 °C.

The compound `Oc1cccc2c1CCC(O)C2` (configuration not stated) gave a melting point of 126 to 128 °C.

`CC1=C2OC(C)(C)OC2CC(C)(C)C1=O` (configuration not stated) yielded a melting point of 79 to 80 °C.

As for `COC(=O)C1(CCCN2CCN(c3ccccc3)CC2)Sc2cc(OC)ccc2OCC1=O` (configuration not stated), the melting point lay in the range of 110 to 112 °C.

For the compound `COc1ccc(Cl)cc1CNc1nc(Cl)nc2c1ncn2[C@@H]1SC[C@@H](O)[C@H]1O`, the melting point was in the range of 189 to 190 °C.

Turning to `CCCCN(Cc1ccccc1)CC1CCc2c(C)cc3c(c2C1=O)CCC(=O)N3` (configuration not stated), the melting point was in the range of 190 to 193 °C.

`COC(=O)c1ncc(Cl)nc1Cl`: the melting point was in the range of 60 to 63 °C.

With `CCC(Oc1ccccc1C(C)(C)C)C(=O)OC1CC(O)C=C2C=CC(C)C(CCC3CC(O)CC(=O)O3)C21` (mixture of isomers), the melting point fell in the range of 176 to 178 °C.

On to `C=C1C(=C)C2C(CCC3(C)C2CCC3(O)C(C)=O)C2(C)CCC(=O)C=C12` (configuration not stated), for which the melting point lay within 274 to 276 °C.

On to `CC1(c2ccc3c(c2)C(c2ccccc2)=NCC(=C[N+](=O)[O-])N3)OCCO1`, for which the melting point lay in the range of 158 to 161 °C.

Compound `CCN(C(=O)c1c(Cl)cccc1[Si](C)(C)C)C(OC)C(C)(C)C` (configuration not stated) returned a melting point of 82 to 83 °C.

In the case of `CN(C)CCNC(=O)c1ccc2c(c1)CN(C(=O)CCCCCN1CCN(c3cccc(C(F)(F)F)c3)CC1)C2`, the melting point turned out to be 120 °C.

In the case of `Cc1ccc2c(c1)C(C(=O)Nc1c(C(C)C)cccc1C(C)C)c1ccccc1CO2` (configuration not stated), the melting point is 166 to 167 °C.

`CN(Cc1cc2c3c(c1)c(=O)c(C(=O)NCc1ccc(Cl)cc1)cn3CC(=O)N2C)C[C@@H](O)c1cc2ccccc2o1` displayed a melting point of 86 to 87 °C.

With `CCC1(O)CSC(=S)N1c1cccc(C)n1` (configuration not stated), the melting point worked out at 118 °C.

On to `C=C(CCC(=O)N1C(=O)OC[C@H]1c1ccccc1)c1ccc(F)cc1F`, for which the melting point is 50 to 55 °C.

`Cc1cc(NC(=O)c2ccccc2O)cc(C)c1O`: the melting point is 142 to 145 °C.

`Cc1ccccc1-c1nc(-c2ccc(F)cc2)n[nH]1` came in with a melting point of 119 to 121 °C.

For the compound `COc1ccc(-c2cc3ncnc(Nc4ccc5[nH]ccc5c4)c3s2)cc1OC`, the melting point was 171 to 178 °C.

Turning to `COc1cc2c(cc1O)C(C1(c3ccccc3Br)CCC1)N(C)CC2` (configuration not stated), the melting point is 48 to 51 °C.

Take `O=C(CC(CSC(=O)c1ccccc1)C(=O)O)c1ccccc1` (configuration not stated): the melting point was 110 to 111 °C.

As to `O=c1c2ccc(Cl)cc2[nH]c2c(O)nn(C3CCCc4sccc43)c(=O)c12` (racemic), the melting point was > 300 °C.

Turning to `CC(C)(C)c1cc(CC2CCCCC2=O)cc(C(C)(C)C)c1O` (configuration not stated), the melting point worked out at 79 °C.

The compound `CC(C)OC(=O)N1Cc2c(-c3ccc(F)cc3)ncn2-c2ccccc21` gave a melting point of 160 °C.

Consider `C[C@]1(COc2ccc(N3CCC(Cc4cccc(OC(F)(F)F)c4)CC3)cc2)Cn2cc([N+](=O)[O-])nc2O1`, for which the melting point was in the range of 187 to 190 °C.

As to `CCCCOc1cc(CCS(=O)(=O)NC(=O)OCCC)n(Cc2ccc(Cl)cc2Cl)n1`, the melting point lay in the range of 92 to 94 °C.

Compound `ClCc1ccc(OCc2cn3c(Cl)cccc3n2)cc1` returned a melting point of 114 to 115 °C.

As for `CN(C)C(=O)COc1ccc(-c2ccc(C3COC(c4c(F)cccc4F)=N3)cc2)cc1` (configuration not stated), the melting point lay in the range of 78 to 80 °C.

As to `CNC(=O)C(NC(=O)c1cn(C)nc1C(F)(F)F)C(COC(C)=O)c1ccccc1` (configuration not stated), the melting point came out at 175 °C.

As for `COC(=O)COc1ccc(C(=O)C(C)C)cc1`, the melting point fell in the range of 45 to 46 °C.

`CCOc1ccc(-c2csc(-c3cccc(C(=O)O)c3)n2)cc1`: the melting point fell in the range of 231 to 232 °C.

On to `Cc1cc(C)nc(-n2nc(S(=O)(=O)Nc3c(Cl)cccc3Cl)nc2N)n1`, for which the melting point lay in the range of 306 to 312 °C.

`C=Cn1cc(C(=O)O)c(=O)c2c(C)c(F)c(N3CCNCC3)c(F)c21` yielded a melting point of 222 to 225 °C.

Turning to `COc1cc2cccc(OC)c2cc1C(=O)O`, the melting point is 151 to 153 °C.

Take `O=C(NC1CC2C=CC1C2)n1cc(F)c(=O)[nH]c1=O` (configuration not stated): the melting point came out at 180 °C.

Turning to `Cn1c(C(F)(F)F)cc(=O)n(-c2ccc(Cl)cc2F)c1=O`, the melting point fell in the range of 114 to 116 °C.

Take `CCCCN1CC(=O)N2[C@@H](c3ccc(NS(C)(=O)=O)cc3)c3[nH]c4ccccc4c3C[C@@H]2C1=O` (relative stereo): the melting point came out at 188 °C.

In turn, `COCC1CN(c2ccc(C3CCC(=O)CC3)cc2)C(=O)O1` (racemic) showed a melting point of 114 to 116 °C.

The compound `Clc1ccc2c(c1)Oc1ccccc1C=C2CBr` registered a melting point of 117 to 119 °C.

Turning to `O=C(Oc1ccccc1)N1Cc2ccccc2C2(Cc3ccccc3O2)C1` (configuration not stated), the melting point was found to be 128 °C.

On to `CC(C)CCCC(C)C1CCC2C3=CC=C4CC(O)C=CC4(C)C3CCC21C` (configuration not stated), for which the melting point is 126 to 127 °C.

As to `CC(C)(O)c1ccc(CNC(=O)c2cccnc2Oc2cc(F)cc(F)c2)cc1`, the melting point is 68 to 70 °C.

Regarding `Cc1ccccc1C(CCC(=O)O)Oc1cc(OCc2cccnc2)ccc1C#N` (configuration not stated), the melting point was in the range of 130 to 134 °C.

`CN(N=Cc1ccc(C#N)cc1)C(=O)c1[nH]c2ccccc2c1-c1ccccc1`: the melting point was 194 to 196 °C.

For the compound `CC1(CN)CN(c2c(F)cc3c(=O)c(C(=O)O)cn(C4CC4)c3c2F)C1`, the melting point lay in the range of 268 to 270 °C.

`O=C1N(Cc2nnc(-c3ccc(Cl)cc3)o2)c2ccccc2C12COc1cc3c(cc12)OCO3` (configuration not stated) came in with a melting point of 161 to 162 °C.

Regarding `CC(=O)Nc1c(Cl)cnc(OCCO)c1Cl`, the melting point was 131 to 132 °C.

With `CCCC1=C(C#N)C(c2cccc(Br)c2)c2c[nH]nc2N1` (configuration not stated), the melting point lay in the range of 202 to 205 °C.

Turning to `O=c1cc(-c2ccccc2)oc(=O)[nH]1`, the melting point was > 210 °C.

On to `Cc1ccccc1-n1c(CF)nc2ccc([N+](=O)[O-])cc2c1=O`, for which the melting point was 155 to 158 °C.

The compound `O=[N+]([O-])c1ccc(-c2ccc(-c3ccc([N+](=O)[O-])cc3Cl)o2)c(Cl)c1` gave a melting point of 247 to 248 °C.

`CCC(=O)OC1(c2ccccc2)CCN(CCN2CNC(=O)c3ccccc32)CC1` gave a melting point of 141 to 144 °C.

With `O=C(O)c1ccccc1NC(C(=O)O)c1ccc(Br)cc1` (configuration not stated), the melting point was determined as 216 °C.

Compound `CC(C)n1cnc2nc(-c3ccc(Cl)cc3)nn2c1=S` returned a melting point of 230 to 232 °C.

On to `Cc1cccc(-c2[nH]c(C(C)C)nc2-c2cccc(-c3ccc(S(=O)(=O)N4CCOCC4)cc3)c2)n1`, for which the melting point lay in the range of 88 to 92 °C.

The compound `C=CC(O)c1ccccc1C#CC1C(O)C2CCN1CC2` (configuration not stated) gave a melting point of 148 to 150 °C.

`NC(=O)c1nc(-c2c(Cl)cc(C(F)(F)F)cc2Cl)[nH]c1C(N)=O`: the melting point fell in the range of 306 to 308 °C.

For the compound `CN(C)c1ccc(S(=O)(=O)n2c(CCCC(=O)O)cc3nc(Cl)ccc32)cc1`, the melting point turned out to be 76 °C.

In turn, `Oc1c(Br)cc(-c2c3ccccc3c(Br)c3oc4ccccc4c23)c(O)c1Br` registered a melting point of 226 to 228 °C.

With `CC(=O)c1ccc(SCCCc2ccccc2)cc1`, the melting point lay in the range of 76 to 78 °C.

The compound `COc1cc2nc(C)[nH]c(=O)c2cc1OCCCN1CCOCC1` showed a melting point of 236 to 238 °C.

`COc1ccc2cc3c(cc2c1)C(=O)OC3=O` registered a melting point of 238 to 240 °C.

Compound `Cc1oc(-c2ccccc2)nc1COc1ccc(COc2ccc(-c3ccccc3)cc2CC(=O)O)cc1` gave a melting point of 102 to 103 °C.

With `CC(C#N)(c1ccc(Cl)c(C(F)(F)F)c1)c1ccc(N)cc1Cl` (configuration not stated), the melting point stood at 180 °C.

Compound `O=C1N(N2CCOCC2)c2ccccc2C1(Cc1ccnc(F)c1)c1ccccc1` (configuration not stated) had a melting point of 170 to 172 °C.

`CC(=O)Nc1nc(C)c(-c2ccc(S(C)(=O)=O)cc2)s1` showed a melting point of 251 to 253 °C.

`O=C(O)CCSc1nnc(S)s1` showed a melting point of 105 to 108 °C.

Take `C=C1C(=C)C2OC1C1=C2Cc2c(OC)ccc(OC)c2C1`: the melting point fell in the range of 177 to 178 °C.

For the compound `CCC(CC)(CC(=O)Nc1cccc(OCc2ccc3ccc(Cl)cc3n2)c1)C(=O)O`, the melting point is 87.5 to 88.5 °C.

Take `O=c1ccc2c(O)cc(O)cc2[nH]1`: the melting point was > 300 °C.

In turn, `CCCCN(CCCC)c1nc(Nc2cccc3c2C(=O)c2ccccc2C3=O)nc(N(CCCC)CCCC)n1` displayed a melting point of 128 to 133 °C.

`CCCCCS(=O)(=O)NC(=O)/C=C/c1cc(OCC2CC2)nn1Cc1ccc(C(F)(F)F)cc1Cl`: the melting point was 148 to 151 °C.

For the compound `COc1cc(-c2nc(NC(C)C)c3c(C)c(C#N)sc3n2)cc(OC)c1OC`, the melting point lay in the range of 191 to 193 °C.

A word on the melting point: it is the temperature, or range, at which the solid turns liquid.
